Marks after values point to notes of the source that are not given here.
Assays:
[1] = Study S.241.1.109: single and multiple dose pharmacokinetics 2 mg TID; format: in vivo, human; conditions: for AUC accumulation ratio Day 7/Day 1: AUC(0-τ); for Linearity Ratio: AUC(0-τ) Day 7 to AUC(0-inf) Day 1; for Tmax: median (min, max); for Accumulation following TID dosing (mean increase): Day 7:Day 1, AUC(0-τ) and Cmax; for Time of peak concentration: after cilansetron dosing; for half-life: approximate mean; for AUC(0-τ) (Day 7) to AUC(0-inf) (Day 1) mean ratio / Cmax accumulation ratio Day 7/Day 1: human
Experimental: In an open-label, randomized, parallel-group study in 36 healthy, male and female subjects (19-45 years), subjects received a 2 mg single dose of cilansetron on Day 1 and 2 mg TID on Days 2-7. The morning doses on Days 1 and 7 were administered immediately after a standard breakfast. Serial blood samples for the measurement of single-dose and steady-state pharmacokinetics of cilansetron and its main metabolites, (4R)-hydroxy cilansetron and (4S)-hydroxy cilansetron, were collected on Day 1 (single dose) up to 24 hours postdose and on Day 7 (multiple dose) up to 8 hours postdose.

human P-glycoprotein = molecular target: T1, human P-glycoprotein (Homo sapiens, UniProt P08183); assay: Study K.241.6026: in vitro transport by P-glycoprotein in PK 1 LLC MDR cells; format: in vitro ADME; conditions: arithmetic mean percentages transported, 3 hours of incubation
T1 construct: expressed in transfected cells; host or cells: PK 1 LLC MDR cells (LLC-PK1 porcine kidney cells expressing human MDR1, by own knowledge)
T1 sequence (P08183 whole entry): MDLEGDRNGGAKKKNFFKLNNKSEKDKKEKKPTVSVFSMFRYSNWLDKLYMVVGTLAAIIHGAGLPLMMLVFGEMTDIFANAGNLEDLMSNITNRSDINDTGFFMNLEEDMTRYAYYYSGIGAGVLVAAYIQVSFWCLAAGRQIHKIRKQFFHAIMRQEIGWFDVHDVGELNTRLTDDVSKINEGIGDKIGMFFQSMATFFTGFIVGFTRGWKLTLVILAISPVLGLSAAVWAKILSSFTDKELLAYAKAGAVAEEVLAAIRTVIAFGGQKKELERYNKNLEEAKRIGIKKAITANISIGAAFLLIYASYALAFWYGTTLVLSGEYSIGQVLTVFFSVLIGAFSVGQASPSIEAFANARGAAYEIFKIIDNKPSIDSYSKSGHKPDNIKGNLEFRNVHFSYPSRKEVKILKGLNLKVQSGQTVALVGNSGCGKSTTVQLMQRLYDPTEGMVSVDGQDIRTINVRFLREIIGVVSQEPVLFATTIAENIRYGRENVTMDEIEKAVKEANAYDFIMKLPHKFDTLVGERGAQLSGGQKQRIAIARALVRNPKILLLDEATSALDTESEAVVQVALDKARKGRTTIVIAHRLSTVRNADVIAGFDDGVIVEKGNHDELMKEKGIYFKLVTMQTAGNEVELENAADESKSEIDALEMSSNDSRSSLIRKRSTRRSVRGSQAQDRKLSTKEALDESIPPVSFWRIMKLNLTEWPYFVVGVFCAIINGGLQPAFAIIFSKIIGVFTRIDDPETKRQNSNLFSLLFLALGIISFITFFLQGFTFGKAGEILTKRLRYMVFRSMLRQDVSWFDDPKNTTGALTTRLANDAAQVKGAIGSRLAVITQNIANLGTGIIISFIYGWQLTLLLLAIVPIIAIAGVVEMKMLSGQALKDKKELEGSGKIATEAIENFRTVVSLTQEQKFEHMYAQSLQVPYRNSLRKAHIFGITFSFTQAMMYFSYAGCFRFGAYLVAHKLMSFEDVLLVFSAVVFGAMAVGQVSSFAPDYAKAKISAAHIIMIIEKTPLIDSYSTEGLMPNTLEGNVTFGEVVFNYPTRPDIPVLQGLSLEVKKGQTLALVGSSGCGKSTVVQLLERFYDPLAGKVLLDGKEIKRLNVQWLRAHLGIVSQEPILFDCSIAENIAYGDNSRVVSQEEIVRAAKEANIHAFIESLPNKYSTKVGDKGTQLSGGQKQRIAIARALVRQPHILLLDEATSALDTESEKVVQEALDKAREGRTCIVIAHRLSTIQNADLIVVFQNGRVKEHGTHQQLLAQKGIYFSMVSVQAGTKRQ

[2] = Study S.241.1.103: 14C mass balance, 8 mg oral and IV; format: in vivo, human
Experimental: The extent of absorption, distribution, metabolism, and elimination of cilansetron has been examined in an open-label, randomized, two period, crossover, mass balance study in 6 healthy male subjects who were treated with a single oral and single […] (30-minute infusion) of 8 mg ^14C-labeled (50 K μCi) cilansetron, with a washout of at least 2 weeks between periods. The ^14C-cilansetron was appropriately labeled in the aromatic ring and the label was therefore not metabolically labile. Serial blood samples, urine collection, and fecal collection were performed up to 144 hours following each dose. ^14C-radioactivity was measured in plasma, whole blood, urine, and feces, and unchanged cilansetron was measured in plasma and urine. Identification of metabolites of cilansetron was performed in plasma, urine, and feces. The results of this study are presented in Table 2.7.2.3.15 and the mean concentration-time plots for ^14C-radioactivity and unchanged cilansetron are shown in FIG. 24 and FIG. 25.
Cilansetron and metabolite profiles in plasma, urine, and feces were evaluated using HPLC separation followed by determination of radioactivity using scintillation counting. Cilansetron, (4R)-hydroxy cilansetron, and (4S)-hydroxy cilansetron accounted for 29.3%, 25.7%, and 13.8% of the total radioactivity, respectively, in plasma at 6 hours after oral administration, and for 46.2%, 20.0% and 14.1%3 of the total radioactivity in plasma at 3 hours after IV administration. The cumulative percent of cilansetron and 4-hydroxy metabolites excreted in urine over a 48-hour interval following dosing was 0.5% and 32.8% of the dose, respectively, following oral dosing, and 1.1% and 31.9% of the dose following IV dosing. In the case of fecal excretion over a 96-hour postdose, cilansetron, (4R)-hydroxy cilansetron, and (4S)-hydroxy cilansetron accounted for 1.2%, 6.9%, and 4.6% of the dose following oral administration, and 1.3%, 5.1%, and 11.3% of the dose following IV administration.

human 5-HT3 receptor = molecular target: T2, human 5-HT3 receptor (Homo sapiens, UniProt P46098); assay: 5-HT3 receptor binding
T2 sequence (P46098 24-478): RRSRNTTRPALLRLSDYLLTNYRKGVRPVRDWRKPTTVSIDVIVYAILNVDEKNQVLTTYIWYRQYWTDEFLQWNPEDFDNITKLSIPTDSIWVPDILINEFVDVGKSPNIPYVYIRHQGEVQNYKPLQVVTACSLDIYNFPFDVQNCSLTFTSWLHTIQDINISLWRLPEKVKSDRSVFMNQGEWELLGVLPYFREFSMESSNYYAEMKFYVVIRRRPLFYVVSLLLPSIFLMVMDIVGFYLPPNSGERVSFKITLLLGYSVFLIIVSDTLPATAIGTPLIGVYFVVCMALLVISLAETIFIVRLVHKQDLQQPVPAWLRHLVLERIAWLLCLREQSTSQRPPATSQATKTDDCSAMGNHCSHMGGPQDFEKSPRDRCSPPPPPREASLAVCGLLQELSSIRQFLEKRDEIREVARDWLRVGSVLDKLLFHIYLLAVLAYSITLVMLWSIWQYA

[3] = Study S.241.1.109: interaction with fluvoxamine 50 mg QD; format: in vivo, human; conditions: for AUC(0-τ) / Cmax / Tmax: steady state; for AUC(0-τ): AUC(0-8); for AUC(0-τ) / Cmax: arith. mean; for Tmax: median; for AUC(0-τ) Ratio (Treatment B/A) / Cmax Ratio (Treatment B/A): cilansetron + fluvoxamine / cilansetron alone, ANOVA of log-transformed data
Experimental: (§1) In an open-label, randomized, parallel-group study in three groups of 12 healthy, male and female subjects (aged 19 to 45 years), subjects received a 2 mg single dose of cilansetron on Day 1, 2 mg TID on Days 2-13, and a 2 mg single dose on Day 14. […] All morning doses of cilansetron and enzyme inhibitors were administered immediately after a standard breakfast. […] For each treatment group, log-transformed cilansetron AUC(0-τ) and Cmax values on Day 14 (cilansetron+enzyme inhibitor) were compared statistically versus values on Day 7 (cilansetron alone).
FIG. 42, FIG. 43, and FIG. 44 present geometric mean steady-state plasma concentration-time profiles for cilansetron and its 4-hydroxy metabolites in the absence and presence of concomitant fluvoxamine.

[4] = Study S.241.1.109: interaction with paroxetine 20 mg QD; format: in vivo, human; conditions: for AUC(0-τ) / Cmax / Tmax: steady state; for AUC(0-τ): AUC(0-8); for AUC(0-τ) / Cmax: arith. mean; for Tmax: median; for AUC(0-τ) Ratio (Treatment B/A) / Cmax Ratio (Treatment B/A): cilansetron + paroxetine / cilansetron alone, ANOVA of log-transformed data
Experimental: as §1
FIG. 50, FIG. 51, and FIG. 52 present geometric mean steady-state plasma concentration-time profiles for cilansetron and its 4-hydroxy metabolites in the absence and presence of concomitant paroxetine. […] These increases in exposure are not clinically significant.

[5] = 3 hours after IV administration
[6] = 6 hours after oral administration
[7] = Cilansetron 2 mg TID + Fluvoxamine 50 mg once daily
[8] = Cilansetron 2 mg TID alone (fluvoxamine group)
[9] = Cilansetron 2 mg TID + Paroxetine 20 mg QD
[10] = Cilansetron 2 mg TID alone (paroxetine group)

Cc1nccn1CC1CCc2c(c3cccc4c3n2CC[C@H]4O)C1=O (stereo partly drawn) [(4R)-hydroxy cilansetron]
AUC(0-τ) ([1]; 2 mg TID, Day 7): 12.9 (18) ng · h/mL | Cmax ([1]; 2 mg TID, Day 7): 2.66 (22) ng/mL | AUC(0-inf) ([1]; 2 mg single dose, Day 1): 11.7 (18) ng · h/mL | AUC(0-τ) ([1]; 2 mg single dose, Day 1): 8.43 (21) ng · h/mL | Cmax ([1]; 2 mg single dose, Day 1): 1.92 (27) ng/mL | T½ ([1]; 2 mg single dose, Day 1): 3.89 (15) h | AUC accumulation ratio Day 7/Day 1 [1]: 147^d % | Linearity Ratio [1]: 107% | Tmax ([1]; Day 1): 2.00 (0.50, 4.00)^b h | Accumulation following TID dosing (mean increase) [1]: 35-47% | Tmax ([1]; Day 7): 2.00 (0.75, 4.00)^b h | Time of peak concentration [1]: approximately 2 hours | half-life [1]: approximately 4 hours | AUC(0-τ) (Day 7) to AUC(0-inf) (Day 1) mean ratio ([1]; in vivo): 1.07 | Cmax accumulation ratio Day 7/Day 1 ([1]; in vivo): 135^e % | Membrane Passage (human P-glycoprotein): 14% | Share of total radioactivity in plasma [2, 5]: 20.0% | Share of total radioactivity in plasma [2, 6]: 25.7% | Fecal excretion over 96 hours ([2]; IV): 5.1 % of the dose | Fecal excretion over 96 hours ([2]; oral): 6.9 % of the dose | pKi (human 5-HT3 receptor): 8.5 | AUC(0-τ) [3, 7]: 9.57 ng·h/mL | Cmax [3, 7]: 1.63 ng/mL | Tmax [3, 7]: 0.75 h | AUC(0-τ) [3, 8]: 12.9 ng·h/mL | Cmax [3, 8]: 2.74 ng/mL | Tmax [3, 8]: 1.75 h | AUC(0-τ) Ratio (Treatment B/A) [3]: 76% | Cmax Ratio (Treatment B/A) [3]: 60% | Mean AUC decrease with fluvoxamine ([3]; human, in vivo): 24% | Mean Cmax decrease with fluvoxamine ([3]; human, in vivo): 40% | AUC(0-τ) [4, 9]: 15.2 ng·h/mL | Cmax [4, 9]: 3.41 ng/mL | Tmax [4, 9]: 1.50 h | AUC(0-τ) [4, 10]: 13.5 ng·h/mL | Cmax [4, 10]: 2.76 ng/mL | Tmax [4, 10]: 2.50 h | AUC(0-τ) Ratio (Treatment B/A) [4]: 116% | Cmax Ratio (Treatment B/A) [4]: 127% | Mean AUC increase with paroxetine ([4]; human, in vivo): 16% | Mean Cmax increase with paroxetine ([4]; human, in vivo): 27%

Cc1nccn1CC1CCc2c(c3cccc4c3n2CC[C@@H]4O)C1=O (stereo partly drawn) [(4S)-hydroxy cilansetron]
AUC(0-τ) ([1]; 2 mg TID, Day 7): 7.91 (19) ng · h/mL | Cmax ([1]; 2 mg TID, Day 7): 1.25 (18) ng/mL | AUC(0-inf) ([1]; 2 mg single dose, Day 1): 7.42 (20) ng · h/mL | AUC(0-τ) ([1]; 2 mg single dose, Day 1): 3.26 (19) ng · h/mL | Cmax ([1]; 2 mg single dose, Day 1): 0.605 (22) ng/mL | T½ ([1]; 2 mg single dose, Day 1): 7.48 (26) h | AUC accumulation ratio Day 7/Day 1 [1]: 239^d % | Linearity Ratio [1]: 108% | Tmax ([1]; Day 1): 4.00 (1.50, 6.00)^b h | Accumulation following TID dosing (mean increase) [1]: 105-139% | Tmax ([1]; Day 7): 3.00 (1.75, 4.00)^b h | Time of peak concentration [1]: 3 to 4 h | half-life [1]: ~7.5 h | AUC(0-τ) (Day 7) to AUC(0-inf) (Day 1) mean ratio ([1]; in vivo): 1.08 | Cmax accumulation ratio Day 7/Day 1 ([1]; in vivo): 205^e % | Accumulation following TID dosing ([1]; in vivo): greater than 2 fold | Membrane Passage (human P-glycoprotein): 13% | Share of total radioactivity in plasma [2, 5]: 14.1% | Share of total radioactivity in plasma [2, 6]: 13.8% | Fecal excretion over 96 hours ([2]; IV): 11.3 % of the dose | Fecal excretion over 96 hours ([2]; oral): 4.6 % of the dose | pKi (human 5-HT3 receptor): 8.0 | AUC(0-τ) [3, 7]: 7.17 ng·h/mL | Cmax [3, 7]: 1.07 ng/mL | Tmax [3, 7]: 2.00 h | AUC(0-τ) [3, 8]: 7.29 ng·h/mL | Cmax [3, 8]: 1.17 ng/mL | Tmax [3, 8]: 3.00 h | AUC(0-τ) Ratio (Treatment B/A) [3]: 101% | Cmax Ratio (Treatment B/A) [3]: 93% | AUC(0-τ) [4, 9]: 7.62 ng·h/mL | Cmax [4, 9]: 1.23 ng/mL | Tmax [4, 9]: 3.00 h | AUC(0-τ) [4, 10]: 7.97 ng·h/mL | Cmax [4, 10]: 1.22 ng/mL | Tmax [4, 10]: 3.00 h | AUC(0-τ) Ratio (Treatment B/A) [4]: 99% | Cmax Ratio (Treatment B/A) [4]: 105%
